# According to patent US10807982B2, “Bromodomain inhibitors” (CELGENE QUANTICEL RESEARCH, INC., priority 2015, dated 2020):
# Where a name gives a salt, the structure may show the parent alone.
# What was measured:
# [1] = test system: NCI-H460, human non-small cell lung cancer cells; assay: Cell-MTS cellular proliferation assay, NCI-H460; assay type: cell-based; conditions: Homo sapiens, 168 hr incubation
# Summary of the method: (§1)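 Cells seeded to reach ~90% confluence at 7 days (Raji 15,000, HL-60 5,000, NCI-H460 3,000 per well); 11-point compound dilution, 100 µM to 2.0 nM final, added 24 h after plating. Exposure 168 hr at 37 °C, 5% CO2; MTS read at OD490. IC50 from background-subtracted OD490 normalized to DMSO controls.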
# [2] = test system: Raji, human Burkitts lymphoma cells; assay: Cell-MTS cellular proliferation assay, Raji; assay type: cell-based; conditions: Homo sapiens, 168 hr incubation
# Summary of the method: as §1
# BRD4(BD1) = BRD4(BD1) (Homo sapiens (Human), UniProt O60885); assay: In vitro enzyme inhibition assay (BRD4 AlphaScreen, H4-tetraacetyl peptide); assay type: binding; conditions: BRD4(BD1) 2 nM, peptide 15 nM
# Summary of the method: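 His-tagged BRD4(BD1), 2 nM, with 15 nM biotinylated H4K5/8/12/16(Ac) peptide in HEPES pH 7.3 buffer, 0.4% DMSO, 20 min RT with compound. Streptavidin donor and Ni-chelate acceptor beads (5 μg/mL) then equilibrated 2 h. AlphaScreen signal; IC50 by four-parameter fit.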
# [3] = test system: HL-60, human proleukemia cells; assay: Cell-MTS cellular proliferation assay, HL-60; assay type: cell-based; conditions: Homo sapiens, HL-60 cells, 168 hr incubation
# Summary of the method: as §1
SMILES,IC50 [1] [µM],IC50 [2] [nM],IC50 (BRD4(BD1)) [nM],IC50 [3] [nM]
"CCCCn1c(C)nc2c(NS(C)(=O)=O)cc(-c3cc(C)c(=O)n(C)c3)cc21 [Example 94, N-[1-butyl-6-(1,5-dimethyl-6-oxopyridin-3-yl)-2-methylbenzimidazol-4-yl]methanesulfonamide hydrochloride]",> 5,≤ 500,≤ 500,≤ 500
"CCCCn1c(C)nc2c(NS(C)(=O)=O)cc(-c3cc(OC)c(=O)n(C)c3)cc21 [Example 95, N-[1-butyl-6-(5-methoxy-1-methyl-6-oxopyridin-3-yl)-2-methylbenzimidazol-4-yl]methanesulfonamide hydrochloride]",> 5,≤ 500,≤ 500,≤ 500
"Cc1cc(-c2cc(CS(C)(=O)=O)c3nc(C)n(CC4CC4)c3c2)cn(C)c1=O [Example 96, 5-[3-(cyclopropylmethyl)-2-methyl-7-(methylsulfonylmethyl)benzimidazol-5-yl]-1,3-dimethylpyridin-2-one]",> 5,≤ 500,≤ 500,≤ 500
"CCOc1nc2c(CS(C)(=O)=O)cc(-c3cc(C)c(=O)n(C)c3)cc2n1CC1CC1 [Example 97, 5-[3-(cyclopropylmethyl)-2-ethoxy-7-(methylsulfonylmethyl)benzimidazol-5-yl]-1,3-dimethylpyridin-2-one]",> 5,≤ 500,≤ 500,≤ 500
"CCOc1nc2c(CS(C)(=O)=O)cc(-c3cc(OC)c(=O)n(C)c3)cc2n1CC1CC1 [Example 98, 5-[3-(cyclopropylmethyl)-2-ethoxy-7-(methylsulfonylmethyl)benzimidazol-5-yl]-3-methoxy-1-methylpyridin-2-one]",> 5,≤ 500,≤ 500,≤ 500
"COc1nc2c(CS(C)(=O)=O)cc(-c3cc(C)c(=O)n(C)c3)cc2n1CC1CC1 [Example 99, 5-[3-(cyclopropylmethyl)-2-methoxy-7-(methylsulfonylmethyl)benzimidazol-5-yl]-1,3-dimethylpyridin-2-one]",> 5,≤ 500,≤ 500,≤ 500
"CCS(=O)(=O)Cc1cc(-c2cc(OC)c(=O)n(C)c2)c2oc(C3CC3)nc2c1 [Example 100, 5-[2-cyclopropyl-5-(ethylsulfonylmethyl)-1,3-benzoxazol-7-yl]-3-methoxy-1-methylpyridin-2-one]",> 5,≤ 500,≤ 500,≤ 500
"Cc1cc(-c2cc(NS(C)(=O)=O)c3oc(=O)n(CC4CC4)c3c2)cn(C)c1=O [Example 101, N-[3-(cyclopropylmethyl)-5-(1,5-dimethyl-6-oxopyridin-3-yl)-2-oxo-1,3-benzoxazol-7-yl]methanesulfonamide]",> 5,500 to 5000,≤ 500,500 to 5000
"Cc1cc(-c2cc(NS(C)(=O)=O)c3oc(=O)n(Cc4ccc(F)cc4)c3c2)cn(C)c1=O [Example 102, N-[5-(1,5-dimethyl-6-oxopyridin-3-yl)-3-[(4-fluorophenyl)methyl]-2-oxo-1,3-benzoxazol-7-yl]methanesulfonamide]",> 5,≤ 500,≤ 500,≤ 500
